These results are taken from patent US20230140397A1, “ANTI-PSMA ANTIBODY-EXATECAN ANALOGUE CONJUGATE AND MEDICAL USE THEREOF” (JIANGSU HENGRUI PHARMACEUTICALS CO., LTD., priority 2020, published 2023).

pIC50: −log10 of the molar value.

Holding throughout (assay): Cell proliferation inhibition assay (ATP, CellTiter-Glo)
Holding throughout (format): cell-based
For orientation: ATP-based viability assays read luminescence as a measure of living cells.

The test system of one test is LNCaP cells. The settings on record: Homo sapiens, 120 h, 5 days, 4.5% FBS, read-out: Effect on cell killing (IC50). The procedure: (§1) In this experiment, the content of ATP in the cells was detected, and the inhibitory effect of the PSMA ADC on the proliferation of cells (ATCC, LNCaP/CRL-1740, 22Rv1/CRL-2505 and PC-3/CRL-1435) was evaluated according to the IC50 values.
LNCaP cells were cultured in an RPMI-1640 medium containing 10% FBS, and passaged 2-3 times a week in a passage ratio of 1:3 or 1:6. During passaging, the medium was removed by pipetting, and the cell layer was rinsed with 5 mL of 0.25% pancreatin. Then the pancreatin was removed by pipetting, the cells were digested in an incubator for 3-5 min, and then a fresh medium was added to resuspend cells. To a 96-well culture plate were added 180 μL of cell suspension at a density of 2×10^3 cells/well and an RPMI-1640 medium containing 4.5% FBS, and to the periphery of the 96-well plate was only added the medium. The plate was incubated in an incubator for 24 h (37° C., 5% CO2).
Then 20 μL of the dilution was added to the above cell plate, and incubated in an incubator (37° C., 5% CO2) for 5 days. […] The chemiluminescence signal values were read on Victor3, and the data were processed using GraphPad software.

The next test concerns 22Rv1 cells. The settings on record: Homo sapiens, 120 h; 22RV1, 5 days, 4.5% FBS; read-out: Effect on cell killing (IC50). The procedure: as §1
(§2) Then 20 μL of the dilution was added to the above cell plate, and incubated in an incubator (37° C., 5% CO2) for 5 days. The compound 2-B (i.e., free toxin of 9-A) was diluted into a stock solution with DSMO, which was then prepared into an initial concentration of 200 μM with PBS, and diluted in a gradient dilution ratio of 1:6 with PBS to obtain 9 concentration points, and an additional 0 concentration point was set. Then 1 μL of the dilution was added to 20 μL of RPMI-1640, and the mixture was transferred to a 96-well culture plate, and incubated in an incubator (37° C., 5% CO2) for 5 days. In the 96-well culture plate, 80 μL of CellTiter-Glo reagent was added to each well, and the plate was incubated at room temperature for 10-15 min away from the light. The chemiluminescence signal values were read on Victor3, and the data were processed using GraphPad software.
22Rv1 cells were cultured in an RPMI-1640 medium containing 10% FBS, and passaged twice a week in a passage ratio of 1:3 or 1:6. During passaging, the medium was removed by pipetting, and the cell layer was rinsed with 5 mL of 0.25% pancreatin. […]

Another test relates to PC-3 cells. Particulars: Homo sapiens, 120 h; PC-3, 5 days, 4.5% FBS; read-out: Effect on cell killing (IC50). The procedure:
as §1, §2
PC-3 cells were cultured in an F-12K medium containing 10% FBS, and passaged 2-3 times a week in a passage ratio of 1:3 or 1:6. During passaging, the medium was removed by pipetting, and the cell layer was rinsed with 5 mL of 0.25% pancreatin. […]

A word on the pIC50: it is the negative decadic logarithm of the IC50, by convention in mol/L.

Consider `CC[C@@]1(O)C(=O)OCc2c1cc1n(c2=O)Cc2c-1nc1cc(F)c(C)c3c1c2[C@@H](NC(=O)[C@H](O)C1CC1)CC3` [Compound 2-B, (R)-2-cyclopropyl-N-((1S,9S)-9-ethyl-5-fluoro-9-hydroxy-4-methyl-10,13-dioxo-2,3,9,10,13,15-hexahydro-1H,12H-benzo[de]pyrano[3′,4′:6,7]indolizino[1,2-b]quinolin-1-yl)-2-hydroxyacetamide], for which the figures for the pIC50 in the test with LNCaP cells, in the test with 22Rv1 cells and with PC-3 cells were 8.77, 8.55 and 8.08, respectively.
